Values quoted from earlier work in patent US9095515B2, “Ezetimibe compositions” (Sanovel Ilac Sanayi Ve Ticaret Anonim Sirketi, priority 2009, dated 2015).

Settings: reported

In the case of `O=C1[C@H](CC[C@H](O)c2ccc(F)cc2)[C@@H](c2ccc(O)cc2)N1c1ccc(F)cc1` [Ezetimibe, (3R,4S)-1-(4-fluorophenyl)-3-[(3S)-3-(4-fluorophenyl)-3-hydroxypropyl]-4-(4-hydroxyphenyl)azetidin-2-one], the solubility in water is given as “practically insoluble”.
